Reference: PubChem BioAssay (NCI)
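Step 1: Grow cells in 96-well plates. Step 2: Expose to compound for 48 hours at 5 concentrations. Step 3: Interpolate endpoints linearly; if unreached, use highest concentration. Definition used: TGI = concentration required for complete inhibition of growth.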

Columns and labels:
Assay in all cases: NCI anticancer screen, dose series, 48 h
A549 NSCLC = tested on: A549 NSCLC
CAKI-1 renal = tested on: CAKI-1 renal
DU-145 prostate = tested on: DU-145 prostate
HCC-2998 colon = tested on: HCC-2998 colon
HL-60(TB) leukemia = tested on: HL-60(TB) leukemia
HOP-62 NSCLC = tested on: HOP-62 NSCLC
HOP-92 NSCLC = tested on: HOP-92 NSCLC
HS 578T breast = tested on: HS 578T breast
LOX IMVI melanoma = tested on: LOX IMVI melanoma
M14 melanoma = tested on: M14 melanoma
MALME-3M melanoma = tested on: MALME-3M melanoma
MDA-N = tested on: MDA-N
OVCAR-3 ovarian = tested on: OVCAR-3 ovarian
RXF 393 renal = tested on: RXF 393 renal
SK-MEL-28 melanoma = tested on: SK-MEL-28 melanoma
SN12C renal = tested on: SN12C renal
SNB-75 CNS = tested on: SNB-75 CNS
SW-620 colon = tested on: SW-620 colon
T-47D breast = tested on: T-47D breast
UACC-257 melanoma = tested on: UACC-257 melanoma

| SMILES | TGI (A549 NSCLC) [µM] | TGI (CAKI-1 renal) [µM] | TGI (DU-145 prostate) [µM] | TGI (HCC-2998 colon) [µM] | TGI (HL-60(TB) leukemia) [µM] | TGI (HOP-62 NSCLC) [µM] | TGI (HOP-92 NSCLC) [µM] | TGI (HS 578T breast) [µM] | TGI (LOX IMVI melanoma) [µM] | TGI (M14 melanoma) [µM] | TGI (MALME-3M melanoma) [µM] | TGI (MDA-N) [µM] | TGI (OVCAR-3 ovarian) [µM] | TGI (RXF 393 renal) [µM] | TGI (SK-MEL-28 melanoma) [µM] | TGI (SN12C renal) [µM] | TGI (SNB-75 CNS) [µM] | TGI (SW-620 colon) [µM] | TGI (T-47D breast) [µM] | TGI (UACC-257 melanoma) [µM] |
| --- | --- | --- | --- | --- | --- | --- | --- | --- | --- | --- | --- | --- | --- | --- | --- | --- | --- | --- | --- | --- |
| Cc1cc(C)c2c(c1)C/C(=C\c1ccccc1C(=O)O)C2=O | > 100 | > 100 | > 100 | > 100 | > 100 | > 100 | > 100 | > 100 | > 100 | > 100 | > 100 | > 100 | > 100 | > 100 | > 100 | > 100 | > 100 | > 100 | > 100 | > 100 |
| CCCCCCOc1ccc(Nc2c(O)c3c(c(O)c2Cl)C(=O)C=CC3=O)cc1 | > 10 | > 10 | > 10 | 3.86 | 3.74 | > 8.71 | 7.14 | 8.39 | 3.61 | > 6.68 | 4.04 | > 6.89 | 4.77 | 4.41 | 3.82 | 4.54 | > 10 | 4.73 | > 10 | > 8.89 |
| O=[N+]([O-])/C(C(Cl)=C(Cl)Cl)=C(/Nc1ccccc1)SCc1ccccc1 | 33.5 | 68.7 | 59.4 | 45 | 40.2 | 36.1 | 60.5 | 75.5 | 39.1 | 30.6 | 30.1 | 33.9 | 28.7 | 35.5 | 39.2 | 44.2 |  | 49 | > 100 | 39.5 |
| O=C1c2cccc3cccc(c23)C2NCCCN12 (centres undefined) | > 100 | > 100 | > 100 | > 100 | > 100 | > 100 | > 100 | > 100 | > 100 | > 100 | > 100 | > 100 | > 100 | > 100 | > 100 | > 100 | 89.5 | > 100 | > 100 | > 100 |
| CC1=NC(=Cc2cc(Br)cc(Br)c2)C(=O)N1n1c(-c2ccccc2)nc2ccccc2c1=O | > 100 | > 100 | > 100 | > 100 | > 100 | > 100 | > 100 | > 100 | > 100 | > 100 | > 100 | > 100 | > 100 | > 100 | > 100 | > 100 | > 100 | > 100 | > 100 | > 100 |
| Cc1cc2c(cc1C)C(=O)C1(C2)Cc2c(C)ccc(C)c2C1=O (centres undefined) | > 100 | > 100 | > 100 | > 100 | > 100 |  | > 100 | > 100 | > 100 | > 100 | > 100 | > 100 | > 100 | > 100 | > 100 | > 100 | > 100 | > 100 | > 100 | > 100 |
| CC(=O)Oc1ccc2c(c1)c1c(=O)oc(C)nc1n2Cc1ccccc1 | > 100 | 34.4 | > 100 | > 100 | > 100 | > 100 | > 100 | > 100 | > 100 | > 100 | > 100 | > 88.1 | > 100 | 68.5 | > 100 | > 100 | > 87.7 | > 100 | > 100 | > 100 |
| Cc1nn(C(=O)c2ccc(Cl)cc2)c2c1C(/C=C/c1ccccc1)SC(N)=N2 (centres undefined) | > 10 | > 10 | > 10 | > 10 | > 10 | > 10 | > 10 | > 10 | > 10 | > 10 | > 10 | > 10 | > 10 | > 10 | > 10 | > 10 | > 10 | > 10 | > 10 | > 10 |
| O=C1C=CC(=O)c2c1ccc1c3ccccc3n(-c3cccc([N+](=O)[O-])c3)c21 | > 10 | 5.48 | > 10 | > 10 | 1.29 | > 10 | 4.05 | > 10 | > 10 | 3.86 | 4 | 4.82 | 4.57 | 4.48 | > 6.36 | > 10 | > 10 | 2.79 | 5.67 | 7.38 |
| CC1C[C@]2(C)C(=NCCN)Nc3ccccc3[C@@H]2N(C)c2ccccc21 (some centres undefined) | 31.6 | 31.3 | 28.7 | 9.69 | 36 | 30.6 | 9.49 | 38.2 | 28.2 | 3.56 | 9.64 | 27.8 | 23.7 | 22.1 | 24.3 | 28.4 | 13.2 | 35.9 | 39.2 | 14.8 |
| Nc1nc(Cl)c(N)c(NCC2(CO)CCCC2)n1 | > 100 | > 100 | > 100 | > 100 | > 100 | > 100 | > 100 | > 100 | > 100 |  | > 100 | > 100 | > 100 | > 100 | > 100 | > 100 | > 100 | > 100 | 35.9 | > 100 |
| CCCCCC(=O)CCCCCCCC(O)CC(=O)OCC (centres undefined) | > 100 | > 100 | > 100 | > 100 | > 100 | > 100 | > 100 | > 100 | > 100 | > 100 | > 100 | > 100 | > 100 |  | > 100 | > 100 |  | > 100 | > 100 | > 100 |
| C=C(C(=O)O)[C@@H]1C[C@@H](OC(C)=O)[C@]2(C)CC/C=C(\C)CCC[C@H](C)[C@H](O)[C@@H]1O2 | > 100 | > 100 | > 100 | > 100 | 57.4 |  | > 100 | > 100 | > 100 | > 100 | > 100 | 64.2 | > 100 | 65.9 | > 100 | > 100 | > 100 | > 100 | > 100 | > 100 |
| O=C(CCc1cc(O)ccc1O)OCCc1ccccc1 | > 100 | 27.2 | 41.2 | > 80.7 | 5.92 | > 100 | 13 | 67.7 |  | > 61.6 | 23.5 | 26.9 |  | 25.9 | 78.7 | 44.9 | > 100 | 42.2 | 64.8 | 28.9 |
| COc1cc(N(CCC#N)CCC#N)ccc1/C(N=Nc1ccccc1C)=N\NC(=O)c1ccc(C)cc1 | > 100 | > 100 | > 100 | > 100 | 23 | > 100 | > 100 | > 100 | > 100 | > 100 | > 100 | 58.8 | > 100 | > 100 | > 100 | > 100 |  | > 100 | > 100 | > 100 |
| O=C(NCCCl)N(O)C(=O)Nc1ccccc1 | > 100 | > 100 | > 100 | > 100 | > 100 | > 100 | > 100 | > 100 | > 100 | > 100 | > 100 | > 100 | > 100 | > 100 |  | > 100 | > 100 | > 100 | > 100 | > 100 |
| O=C(Oc1cccnc1)c1cc2cc(CCl)ccc2oc1=O | > 100 | 35 | 39.5 | > 100 | 58.4 | > 100 | 36.9 | 55.1 | 44.7 | 53.1 | 54.9 | > 100 | 57.9 | 31.5 | > 100 | 50.1 | 79.7 | > 100 | 48 | 98.7 |
| O=C1c2cccc3cccc(c23)C(=O)N1CCCNCCCNCCCCNCCCNCCCN1C(=O)c2cccc3cccc(c23)C1=O | 12.9 | 29.6 | 14 | 16.8 | 4.64 | 27.3 | 22 | 13.3 | > 38.1 | 16.2 | 7.03 | 6.83 | 19.6 | 19.1 | 9 | 16.4 | 12.5 | 14.9 | 47 | 22.6 |
| CCOC(=O)CO/N=C1/C(c2c(O)[nH]c3ccccc23)=Nc2ccccc21 | > 100 | > 100 | > 100 | > 100 | > 100 | 46 | 63.3 | > 100 | > 100 | > 100 | > 100 | > 100 | 55 | 29.2 | > 100 | > 100 | 9.88 | > 100 | 45.8 | > 100 |
| CCN1CCC(O)(/C=C/c2ccc(C)cc2)C(C(=O)/C=C/c2ccc(C)cc2)C1 (centres undefined) | 21.4 | 8.1 | 25.2 | 5.08 | 5.15 | 25.9 | 19.6 | 7.55 | 2.59 | 9.52 | 14.8 | 10.3 | 18.4 | 10.6 | 14.8 | 20.6 | 22 | 3.36 | 9.89 | 25.5 |
| S=C1SSC2N=CC=CC12 (centres undefined) | > 100 | 34.3 | > 100 | 61.4 | > 100 |  | > 100 | > 100 | > 100 | > 100 | > 100 | > 100 | > 100 | > 100 | > 100 | > 100 | > 100 | > 100 | > 100 | > 100 |
| CC1CC[C@@]2(OC1)OC1C[C@H]3[C@@H]4CC[C@H]5CC(OC6OC(CO)C(O)C(OC7OC(CO)C(OC8OC(CO)C(O)C(OC9OC(CO)C(O)C(O)C9O)C8OC8OC(CO)C(O)C(O)C8O)C(O)C7O)C6O)[C@H](O)CC5(C)[C@H]4CCC3(C)C1[C@@H]2C (some centres undefined) | 21.6 | 11.3 | 12.1 | 4.71 | 9.3 | 11.3 | 12.1 | 6.16 | 9.05 | 17.6 | 15.1 | 13.8 | 1.93 | 3.27 | 14.5 | 9.03 | 10.9 | 8.32 | 4.58 | 16.9 |
| CC(C(=O)OCc1ccccc1)(c1ccco1)N1C(=O)OC(c2ccccc2)C1c1ccccc1 (centres undefined) | > 100 | > 100 | > 100 | > 100 | > 100 | > 100 | > 100 | > 100 | > 100 | > 100 | > 100 | > 100 | > 100 | > 100 | > 100 | > 100 | > 100 | > 100 | > 100 | > 100 |
